# Test results as given in US20230172204A1 (BASF SE, priority 2020, published 2023).
# What was measured:
# [1] = system: Phakopsora pachyrhizi (F129L); assay: Protective control of soybean rust on soybeans (PHAKPA P2); assay type: in vivo; conditions: for % PHAKPA (F129L) Disease level P2 at 4 ppm: protective P2, 4 ppm; for % PHAKPA (F129L) Disease level P2 at 4 ppm / % PHAKPA (F129L) Disease level P2 at 16 ppm: soybean rust F129L; for % PHAKPA (F129L) Disease level P2 at 16 ppm: protective P2, 16 ppm; for PHAKPA (F129L) Disease level (%) P2 at 16 ppm / PHAKPA (F129L) Disease level (%) P2 at 4 ppm: P2 protective, % diseased leaf area
# [2] = system: Phakopsora pachyrhizi (F129L); assay: Protective control of soybean rust on soybeans (PHAKPA P6); assay type: in vivo; conditions: for % PHAKPA (F129L) Disease level P6 at 4 ppm: protective P6, 4 ppm; for % PHAKPA (F129L) Disease level P6 at 4 ppm / % PHAKPA (F129L) Disease level P6 at 16 ppm: soybean rust F129L; for % PHAKPA (F129L) Disease level P6 at 16 ppm: protective P6, 16 ppm
# [3] = P6 protective, % diseased leaf area
SMILES,% PHAKPA (F129L) Disease level P2 at 4 ppm [1] [%],% PHAKPA (F129L) Disease level P2 at 16 ppm [1] [%],% PHAKPA (F129L) Disease level P6 at 4 ppm [2] [%],% PHAKPA (F129L) Disease level P6 at 16 ppm [2] [%],PHAKPA (F129L) Disease level (%) P2 at 16 ppm [1] [%],"PHAKPA (F129L) Disease level (%) P6 at 16 ppm [2, 3] [%]",PHAKPA (F129L) Disease level (%) P2 at 4 ppm [1] [%],"PHAKPA (F129L) Disease level (%) P6 at 4 ppm ([2]; P6 protective, 4 ppm, % diseased leaf area) [%]"
CO/N=C(/C(=O)OC)c1cccc(C)c1CO/N=C(\C)c1ccc(Br)cc1 [compound 114],38,5,52,15,–,–,–,–
CNC(=O)/C(=N/OC)c1cccc(C)c1CO/N=C(\C)c1cc(Br)cc(F)c1F [compound 241],3,0,33,12,–,–,–,–
C=C(C)c1cccc(/C(=N\OC)C(=O)NC)c1CO/N=C(\C)c1ccccc1 [compound 399],67,8,90,15,–,–,–,–
C#Cc1cc(F)c(F)c(/C(C)=N/OCc2c(C)cccc2/C(=N\OC)C(=O)NC)c1 [compound 243],4,0,37,1,–,–,–,–
CNC(=O)/C(=N/OC)c1cccc(C)c1CO/N=C(\C)c1cc(C(F)(F)F)ccc1C1CC1 [compound 185],100,67,90,77,–,–,–,–
CNC(=O)/C(=N/OC)c1cccc(C)c1CO/N=C(\C)c1ccc(C#N)cc1 [Ex. 159],28,2,28,1,0,0,–,–
CO/C=C(/C(=O)OC)c1cccc(C)c1CO/N=C(\C)c1c(Cl)ccc(Cl)c1OC(F)(F)F [compound 444],100,47,83,53,–,–,–,–
CO/N=C(/C(=O)OC)c1cccc(C)c1CO/N=C(\C)c1ccc(-c2ccccc2)cc1C(F)(F)F [compound 414],53,9,53,15,–,–,–,–
CNC(=O)/C(=N/OC)c1cccc(C)c1CO/N=C(\C)c1c(Cl)ccc(F)c1OC(F)(F)F [compound 440],93,23,73,23,–,–,–,–
CNC(=O)/C(=N/OC)c1cccc(OC)c1CO/N=C(\C)c1cccc(C(F)(F)F)c1 [compound 461],26,2,52,6,–,–,–,–
CO/N=C(/C(=O)OC)c1cccc(C)c1CO/N=C(\C)c1ccc(F)c(C(F)(F)F)c1 [compound 49],60,18,60,7,–,–,–,–
CNC(=O)/C(=N/OC)c1ccccc1CO/N=C(\C)c1cc(Cl)cc(Cl)c1 [reference compound],–,–,–,–,–,–,100,97
CO/N=C(/C(=O)OC)c1cccc(C)c1CO/N=C(\C)c1ccc(Cc2ccccc2)cc1OC(F)(F)F [compound 416],57,27,67,25,–,–,–,–
CNC(=O)/C(=N/OC)c1cccc(C)c1CO/N=C(\C)c1ccc(Cl)cc1OC(F)(F)F [compound 375],47,8,40,6,–,–,–,–
CNC(=O)/C(=N/OC)c1ccccc1CO/N=C(/c1ccc(F)cc1)C(F)F [reference compound],–,–,–,–,15,15,–,–
CCC/C(=N\OCc1c(C)cccc1/C(=N\OC)C(=O)OC)c1ccccc1 [compound 387],60,30,80,47,–,–,–,–
CO/N=C(/C(=O)OC)c1cccc(C)c1CO/N=C(\C)c1cccc(CC2COC2)c1 [compound 160],100,97,87,90,–,–,–,–

SMILES,% PHAKPA (F129L) Disease level P2 at 4 ppm [1] [%],% PHAKPA (F129L) Disease level P2 at 16 ppm [1] [%],% PHAKPA (F129L) Disease level P6 at 4 ppm [2] [%],% PHAKPA (F129L) Disease level P6 at 16 ppm [2] [%],PHAKPA (F129L) Disease level (%) P2 at 16 ppm [1] [%],"PHAKPA (F129L) Disease level (%) P6 at 16 ppm [2, 3] [%]",PHAKPA (F129L) Disease level (%) P2 at 4 ppm [1] [%],"PHAKPA (F129L) Disease level (%) P6 at 4 ppm ([2]; P6 protective, 4 ppm, % diseased leaf area) [%]"
CO/N=C(/C(=O)OC)c1cccc(C)c1CO/N=C(\C)c1ccc(C)c(Cl)c1 [compound 163],20,1,47,9,–,–,–,–
CNC(=O)/C(=N/OC)c1cccc(C)c1CO/N=C(\C)c1ccc(OC)cc1 [compound 164],5,0,27,0,–,–,–,–
CO/C=C(/C(=O)OC)c1cccc(C)c1CO/N=C(\C)c1ccc(Cl)c(Cl)c1C(F)(F)F [compound 430],22,6,37,17,–,–,–,–
CNC(=O)/C(=N/OC)c1cccc(C)c1CO/N=C(\C)c1cc(C(F)(F)F)ccc1C(F)(F)F [compound 272],60,8,–,–,–,–,–,–
CO/N=C(/C(=O)OC)c1cccc(C)c1CO/N=C(\C)c1ccccc1C#N [compound 224],97,100,100,100,–,–,–,–
CO/N=C(/C(=O)OC)c1cccc(C)c1CO/N=C(\C)c1ccc(Cl)cc1 [Ex. 154],30,13,63,9,25,17,–,–
CNC(=O)/C(=N/OC)c1cccc(C)c1CO/N=C(\C)c1ccccc1OCOC [compound 314],100,40,–,–,–,–,–,–
CNC(=O)/C(=N/OC)c1cccc(C)c1CO/N=C(\C)c1ccccc1Oc1ccccc1 [compound 321],100,40,–,–,–,–,–,–
CNC(=O)/C(=N/OC)c1cccc(C)c1CO/N=C(\C)c1ccc(CC2COC2)cc1 [compound 83],97,73,–,–,–,–,–,–
CNC(=O)/C(=N/OC)c1cccc(C)c1CO/N=C(\C)c1cc(C(F)(F)F)ccc1C [compound 273],60,3,–,–,–,–,–,–
"CO/N=C(/C(=O)OC)c1cccc(C)c1CO/N=C(\OC)c1cccc(C(F)(F)F)c1 [drawing 977, reference compound]",–,–,–,–,–,23,–,–
CNC(=O)/C(=N/OC)c1cccc(C)c1CO/N=C(\C)c1ccccc1OC(C)C [compound 315],100,60,–,–,–,–,–,–
CCOc1ccccc1/C(C)=N/OCc1c(C)cccc1/C(=N\OC)C(=O)NC [compound 312],100,53,–,–,–,–,–,–
CO/N=C(/C(=O)OC)c1cccc(C)c1CO/N=C(\C)c1ccc(CC2COC2)cc1 [compound 82],87,57,–,–,–,–,–,–
CNC(=O)/C(=N/OC)c1cccc(C)c1CO/N=C(\C)c1ccc(OC(F)(F)F)cc1Cl [compound 271],5,1,–,–,–,–,–,–
"CNC(=O)/C(=N/OC)c1cccc(C)c1CO/N=C(\OC)c1cccc(C)c1 [drawing 974, reference compound]",–,–,–,–,–,45,–,–
"CO/N=C(/C(=O)OC)c1cccc(C)c1CO/N=C(\C)c1cccc(OC(F)(F)F)c1 [drawing 936, reference compound]",–,–,–,–,–,–,17,–
